# Assay results published in ChEMBL document CHEMBL5352454, “Design, synthesis, and evaluation of tricyclic compounds containing phenyl-tetrazole as XOR inhibitors” (Eur J Med Chem, 2023).
# The source made the active and inactive calls. No cut-off for these calls is given here.
# Tests used:
# [1] = target: T1, Xanthine dehydrogenase/oxidase (Homo sapiens, UniProt P47989); test: Inhibition of XOR (unknown origin) using xanthine as substrate incubated for 3 mins followed by xanthine addition by spectroscopy based analysis
# [2] = tested on: Mus musculus; test: Hypouricemic activity in hypoxanthine/potassium oxonate-induced hyperuricemia mouse model assessed as reduction in uric acid level at 5 mg/kg, IG measured after 3 to 5 hrs; format: functional, organism-based; settings: time 3-5 hrs
# [3] = tested on: Mus musculus; test: Hypouricemic activity in hypoxanthine/potassium oxonate-induced hyperuricemia mouse model assessed as reduction in serum uric acid level at 5 mg/kg, IG measured upto 9 hrs; format: functional, organism-based
# [4] = tested on: Mus musculus; test: Hypouricemic activity in hypoxanthine/potassium oxonate-induced hyperuricemia mouse model assessed as reduction in uric acid level at 5 mg/kg, IG measured after 3 hrs; format: functional, organism-based
# [5] = target: T1, Xanthine dehydrogenase/oxidase; test: Inhibition of XOR (unknown origin) using xanthine as substrate at 10 uM incubated for 3 mins followed by xanthine addition by spectroscopy based analysis relative to control; settings: 0.05 h
# T1 sequence (P47989 whole entry): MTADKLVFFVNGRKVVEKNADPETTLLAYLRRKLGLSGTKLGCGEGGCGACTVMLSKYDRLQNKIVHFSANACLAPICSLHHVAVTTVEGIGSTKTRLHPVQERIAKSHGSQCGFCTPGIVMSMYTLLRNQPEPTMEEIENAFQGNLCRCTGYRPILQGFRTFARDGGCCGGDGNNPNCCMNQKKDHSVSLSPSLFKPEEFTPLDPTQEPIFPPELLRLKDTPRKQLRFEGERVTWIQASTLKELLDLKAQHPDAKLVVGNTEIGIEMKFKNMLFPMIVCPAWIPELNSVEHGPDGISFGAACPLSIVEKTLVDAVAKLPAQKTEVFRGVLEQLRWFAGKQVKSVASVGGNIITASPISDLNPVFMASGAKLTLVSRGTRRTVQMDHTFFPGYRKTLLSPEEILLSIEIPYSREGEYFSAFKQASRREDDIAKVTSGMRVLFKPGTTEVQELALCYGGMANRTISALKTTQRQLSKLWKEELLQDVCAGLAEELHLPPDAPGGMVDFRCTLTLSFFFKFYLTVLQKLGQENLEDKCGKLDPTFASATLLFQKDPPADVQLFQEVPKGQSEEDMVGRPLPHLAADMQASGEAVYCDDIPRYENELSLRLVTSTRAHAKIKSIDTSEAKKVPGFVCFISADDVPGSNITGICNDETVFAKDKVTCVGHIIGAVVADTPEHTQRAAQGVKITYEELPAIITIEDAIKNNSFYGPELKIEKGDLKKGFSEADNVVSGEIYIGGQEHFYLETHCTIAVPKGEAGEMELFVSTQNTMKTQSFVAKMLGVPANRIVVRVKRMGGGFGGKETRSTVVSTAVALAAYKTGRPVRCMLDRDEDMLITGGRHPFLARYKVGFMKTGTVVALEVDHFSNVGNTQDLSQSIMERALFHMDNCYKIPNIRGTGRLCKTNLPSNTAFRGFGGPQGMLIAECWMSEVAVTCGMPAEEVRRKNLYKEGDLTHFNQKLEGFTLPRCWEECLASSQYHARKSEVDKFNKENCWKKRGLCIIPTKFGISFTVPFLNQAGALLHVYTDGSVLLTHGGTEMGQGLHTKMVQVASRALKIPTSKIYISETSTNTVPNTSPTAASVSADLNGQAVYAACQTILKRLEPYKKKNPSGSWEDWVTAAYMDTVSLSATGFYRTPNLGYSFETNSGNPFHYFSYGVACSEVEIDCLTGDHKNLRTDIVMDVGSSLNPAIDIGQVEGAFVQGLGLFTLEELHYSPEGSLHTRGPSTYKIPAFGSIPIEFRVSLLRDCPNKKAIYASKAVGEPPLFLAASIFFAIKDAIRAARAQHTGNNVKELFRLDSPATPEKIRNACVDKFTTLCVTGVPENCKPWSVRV
SMILES,IC50 [1] [µM],also measured
CC(C)Oc1ccc(NC(=O)c2ccc(-c3nnn[nH]3)cc2)cc1,0.055,Activity [2]: Active; Activity [3]: Active
CCOc1ccc(NC(=O)c2ccc(-c3nnn[nH]3)cc2)cc1,0.0293,Activity [2]: Active; Activity [3]: Active
c1cc(-c2ccc(-c3nnn[nH]3)cc2)n[nH]1,–,inhibition at 10 µM [5]: < 50%
c1ncc(-c2ccc(-c3nnn[nH]3)cc2)cn1,0.92,–
CCOc1ccccc1-c1ccc(-c2nnn[nH]2)cc1,–,inhibition at 10 µM [5]: < 50%
COc1ccc(-c2ccc(-c3nnn[nH]3)cc2)cc1,1.39,–
O=C(O)c1cc(-c2ccc(-c3nnn[nH]3)cc2)ccc1Cl,0.72,–
O=Cc1cc(Cl)ccc1-c1ccc(-c2nnn[nH]2)cc1,0.54,–
CC(C)(C)c1ccc(-c2ccc(-c3nnn[nH]3)cc2)cc1,4.23,–
c1cc(-c2ccc(-c3nnn[nH]3)cc2)cs1,–,inhibition at 10 µM [5]: < 50%
O=Cc1ccccc1-c1ccc(-c2nnn[nH]2)cc1,0.49,–
c1cc(-c2ccc(-c3nnn[nH]3)cc2)co1,–,inhibition at 10 µM [5]: < 50%

# Further lines, with some results ahead:
IC50 [1] [µM],SMILES,also measured
2.09,COc1cccc(-c2ccc(-c3nnn[nH]3)cc2)c1,–
0.00691,Cc1nc(-c2ccc(OCC(C)C)c(C#N)c2)sc1C(=O)O [FEBUXOSTAT],Activity [4]: Active
0.16,CCCOc1ccc(NC(=O)c2ccc(-c3nnn[nH]3)cc2)cc1,–
1.69,COc1ccccc1-c1ccc(-c2nnn[nH]2)cc1,–
0.44,CCOc1ccc(-c2ccc(-c3nnn[nH]3)cc2)cc1,–
0.18,CC(=O)c1ccc(-c2ccc(-c3nnn[nH]3)cc2)cc1,–
0.37,CCOc1ccc(CNC(=O)c2ccc(-c3nnn[nH]3)cc2)cc1,–
0.0263,O=C(Nc1ccc(Cl)cc1)c1ccc(-c2nnn[nH]2)cc1,Activity [2]: Active; Activity [3]: Active
0.04,COc1ccc(NC(=O)c2ccc(-c3nnn[nH]3)cc2)cc1,–
0.41,O=C(O)c1ccc(-c2ccc(-c3nnn[nH]3)cc2)cc1Cl,–
